Data as given in patent US20090298708A1, “2'-DEOXY-2'-FLUORO-BETA-D-ARABINONUCLEOSIDE 5'-TRIPHOSPHATES AND THEIR USE IN ENZYMATIC NUCLEIC ACID SYNTHESIS” (priority 2006, published 2009).

Molecular target: T1, HIV-1 RT (recombinant) (Human immunodeficiency virus type 1 group M subtype B, UniProt P04585)
T1 construct: Reverse transcriptases (RT): • MMLV-RT (MMLV or MM; source: Fermentas); • HIV-1 RT (recombinant); purchased Worthington Biochemical Corp
Assay: Primer extension assay with HIV-1 RT
Assay type: biochemical
Set-up: key to Incorporation of three 2′F-araTTP / 2′F-araCTP (incorporation efficiency) / Enzymatic activity during primer extension reactions: ++++: excellent (no pausing observed); +++: very good (with slight pausing); ++: Good, full-length products with significant pausing; +: significant pausing, no full-length product but at least one 2′F-araN incorporation detected
Settings: for Order of efficiency of incorporation / Incorporation of three 2′F-araTTP / 2′F-araCTP (incorporation efficiency) / Enzymatic activity during primer extension reactions: 37° C.; for Order of efficiency of incorporation: DNA template PF22 (T/U triphosphates) or PF24 (C triphosphates), three contiguous units; for Incorporation of three 2′F-araTTP / 2′F-araCTP (incorporation efficiency): DNA template PF22 (2′F-araTTP) or PF24 (2′F-araCTP); for Enzymatic activity during primer extension reactions: plus dATP, dGTP
From the text: Primer extension assays were used to assess the incorporation of 2′F-araNTP on the various DNA templates (Table 1). The DNA primer (PF20) was first radioactively labeled at the 5′-hydroxyl terminus with a radioactive phosphorus probe and the enzyme T4 polynucleotide kinase (T4 PNK) (see Example 1 for General Methods). To assess the incorporation of 2′F-araNTPs, the primer and template were annealed, and the nucleoside 5′-triphosphates added in the presence of enzyme under the conditions specified in Table 2. Time points were obtained by analyzing small aliquots from the reaction mixture through polyacryamide gel electrophoresis (PAGE) and autoradiography.
Primer extension assays were used to assess the incorporation efficiency of contiguous 2′F-ara(T/C)TPs compared to 2′F-r(U/C)TP on a DNA template (e.g. PF22 or PF24). To this end, a DNA template (e.g. PF22: FIGS. 15, 16, 17A, 18, 21A; PF24: FIGS. 17B, 19, 20, 21B), primer and the appropriate NTPs (e.g. combination of dATP/dCTP/dGTP/ and NTP, where N=dT, 2′F-araT, 2′F-rU, or rU (FIGS. 15, 16, 17A, 18, 21A); or combination of dATP/dGTP/dTTP/ and NTP, where N=dC, 2′F-araC, 2′F-rC, or rC (FIGS. 17B, 19, 20, 21B)), were incubated in the presence one of MMLV-RT, 9N, HIV or DV polymerase. The protocols and conditions are described in Example 2 and Table 2.
Unless otherwise noticed in the Examples described below, the conditions used in the primer extension assays, such as dNTP concentration, reaction temperatures, concentration of Mg^2+, and reaction buffers (provided by the manufacturers, except for the HIV buffer which was prepared in-house) are shown in Table 2.
Primer extension assays were used to assess the incorporation of 2′F-araTTP on the DNA template (PF22). The DNA primer (PF20) was first radioactively labeled at the 5′-hydroxyl terminus with a radioactive phosphorus probe and the enzyme T4 polynucleotide kinase (T4 PNK) according to the manufacturer's specifications (MBI Fermentas Life Sciences, Burlington, ON). Incorporation of the ^32P label was accomplished in reaction mixtures consisting of DNA substrate (200 pmol), 2 μl loxreaction buffer (Buffer A for forward reaction: 500 mM Tris-HCl, pH 7.6 at 25° C., 100 mM MgCl2, 50 mM DTT, 1 mM spermidine and 1 mM EDTA), 1 μl T4 PNK enzyme solution (10 U/1 μl in a solution of 20 mM Tris-HCl, pH 7.5, 25 mM KCl, 0.1 mM EDTA, 2 mM DTT and 50% glycerol), 6 μl [γ-^32P]-ATP solution (6000 Ci/mmol, 10 mCi/ml; Amersham Biosciences, Inc.) and autoclaved sterile water to a final volume of 20 μl. The reaction mixture was incubated for about 45-60 min at 37° C., followed by a second incubation for 10 min at 95° C. to heat denature and deactivate the kinase enzyme. The solution was purified according to a standard protocol and the isolated yield of 5′-^32P-DNA following gel extraction averages 50%. The pure labeled samples were kept at −20° C. for future use.
Usually 2 or 3 folds of cold (unlabeled) DNA primer were combined with the radioactive primer. Then primer to template was mixed together with the final concentration at 85 nM for the primer and 255 nM for the template (i.e. the primer:template=1:3 molar ratio). The primer and template were heated at 95° C. for 5 min and annealed at 4° C. for at least two hours before use. In an Eppendorf tube, the following reagents, 5× or 10× buffer, nucleoside 5′-triphosphates (DATP, dGTP, dCTP, 2′F-araTTP at the same concentrations; see legend of FIG. 2), water, the primer and template mixture, were added together according to pre-calculated reaction volume (20 μL) and concentrations (see reaction conditions in Table 2). Mineral oil (20 μL) was usually used to prevent evaporation. The reaction mixture was incubated at either 37° C. or 55° C. and one of the various enzymes tested was added to initiate the primer extension reactions. […]

Row | SMILES | Order of efficiency of incorporation | Incorporation of three 2′F-araTTP / 2′F-araCTP (incorporation efficiency) | Enzymatic activity during primer extension reactions (Example 3, DNA template PF24, 3x 2′F-araCTP, dTTP) | substrate property for HIV RT (DNA template PF22, compared to 2′F-rUTP and rUTP) | Enzymatic activity during primer extension reactions (Example 2, DNA template PF22, 3x 2′F-araTTP, dCTP)
1 | O=c1ccn([C@@H]2O[C@H](COP(=O)(O)OP(=O)(O)OP(=O)(O)O)[C@@H](O)[C@H]2F)c(=O)[nH]1 [2′F-rUTP, 1-(2-deoxy-2-fluoro-β-D-ribo-furanosyl)uracil 5′-triphosphate, reference compound] | dTTP > 2′F-araTTP > 2′F-rUTP > UTP |  |  |  | 
2 | Cc1cn([C@H]2C[C@H](O)[C@@H](COP(=O)(O)OP(=O)(O)OP(=O)(O)O)O2)c(=O)[nH]c1=O [dTTP, reference compound] | dTTP > 2′F-araTTP > 2′F-rUTP > UTP |  |  |  | 
3 | Nc1ccn([C@H]2C[C@H](O)[C@@H](COP(=O)(O)OP(=O)(O)OP(=O)(O)O)O2)c(=O)n1 [dCTP] | dCTP~2′F-rCTP ≧ 2′F-araCTP > CTP |  |  |  | 
4 | Nc1ccn([C@@H]2O[C@H](COP(=O)(O)OP(=O)(O)OP(=O)(O)O)[C@@H](O)[C@@H]2F)c(=O)n1 [2′F-araCTP, 1-(2-deoxy-2-fluoro-β-D-arabinofuranosyl)cytosine 5′-triphosphate] | dCTP~2′F-rCTP ≧ 2′F-araCTP > CTP | ++++ | ++++ |  | 
5 | Cc1cn([C@@H]2O[C@H](COP(=O)(O)OP(=O)(O)OP(=O)(O)O)[C@@H](O)[C@@H]2F)c(=O)[nH]c1=O [2′F-araTTP, 1-(2-deoxy-2-fluoro-β-D-arabino-furanosyl)thymine 5′-triphosphate] | dTTP > 2′F-araTTP > 2′F-rUTP > UTP | ++++ |  | excellent substrate | ++++
6 | Nc1ccn([C@@H]2O[C@H](COP(=O)(O)OP(=O)(O)OP(=O)(O)O)[C@@H](O)[C@H]2F)c(=O)n1 [2′F-rCTP, 1-(2-deoxy-2-fluoro-β-D-ribofuranosyl) cytosine 5′-triphosphate, reference compound] | dCTP~2′F-rCTP ≧ 2′F-araCTP > CTP |  |  |  | 
